Among the data in US20240217951A1, “PCSK9 INHIBITORS AND METHODS OF USE THEREOF” (AstraZeneca AB, priority 2022, published 2024) are EC50 and IC50 values, retold here.

Assay [1] deals with T1, PCSK9 (Homo sapiens, UniProt Q8NBP7, G670E/V474I). Briefly: Assay 3 - PCSK9 LDL-C uptake assay in HepG2 cells. On the set-up: TEV cleavage site (C); His6 (C); host or cells: added to HepG2 cells (ATCC #HB-8065). The conditions noted are these: 125 nM PCSK9, pHrodo Red-LDL, read-out: Assay 3 LDL uptake potency. The format is cell-based. An excerpt:
Assay 3—PCSK9 LDL-C Uptake Assay
This assay measures for PCSK9 antagonist activity based on a test compound's capacity to restore LDL-C-uptake in HepG2 cells. The assay is based on exogenous PCSK9 and LDL-C complexed with a pH-sensitive dye. Outside the cells, at neutral pH, the pHrodo Red-LDL is dimly fluorescent but upon LDLR mediated endocytosis it fluoresces brightly. PCSK9 traffics the LDLR to intracellular degradation and reduces uptake of LDL-C. Inhibition of PCSK9 reduces LDLR degradation and the increased LDL-C uptake is quantified by fluorescence microscopy.
Preparation of Assay Reagents
Cell medium: MEM supplemented with 10% FBS, 1×NEAA and Sodium Pyruvate Assay medium: OptiMem supplemented with penicillin/streptomycin
Cells: HepG2 (ATCC #HB-8065)
Step by Step Protocol for Running the Assay:
• 1. Cryopreserved HepG2 cells were thawed in assay medium and centrifuged for 5 min at 250 g. Supernatant was discarded and the cell pellet resuspended in cell medium and counted with a Nucleocounter. Cells were again centrifuged 5 min at 250 g and the pellet was resuspended to 500000 cells/mL in assay medium. • 2. 20 μL of above cell mix was dispensed into black pclear TC treated 384 well plates with Multidrop Combi and left at room temperature for 20 minutes. • 3. Plates were incubated at 37° C., 5% CO2 for 24 h
• 1. Test compounds were prepared in concentration response in DMSO with a half-log dilution factor in DMSO in Echo 384 LDV plates starting at 10 mM. • 2. 30 nL of above test compounds were dispensed with Echo 655 to cells for a top concentration of 10 μM • 3. 10 μL PCSK9 in assay medium was dispensed to cells with Multidrop Combi for 125 nM final concentration in the wells. • 4. Plates were incubated at 37° C., 5% CO2 for 24 h
• 1. 10 μL pHrodo Red-LDL in assay medium was dispensed to cells with Multidrop Combi for 6 μg/mL • 2. Plates were incubated at 37° C., 5% CO2 and imaged with the Incucyte S3 after 4 h and 24 h
Image data was processed using Incucyte 2021, a software to identify cells and red fluorescent intensity. Screener was used to further process data. Data was normalized as % effect of the signal between median values of the on-plate controls of DMSO and 100 nM Evolocumab according to the formula % effect=−100*(x−DMSO)/(Evolocumab−DMSO) where x equals the measured signal. Concentration response data of the normalized values were fitted using a four-parameter logistic fit.

In assay [2] the target is GSK3β (Glycogen synthase kinase-3 beta) (Homo sapiens, UniProt P49841). Briefly: Assay 6 - GSK3β assay (ThermoFisher Z-Lyte). The conditions noted are these: geometric mean; ATP Conc: 10 μM; read-out: Assay 6 (GSK3β FRET-Z-Lyte CR) GMean IC50 (μM) ATP Conc: 10. The format is biochemical. In a few lines: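 Z-Lyte fluorescence kinase assay with 0.22-0.92 ng GSK3β and 2 μM Ser/Thr 09 peptide in 50 mM HEPES pH 7.5, 10 mM MgCl2, 1 mM EGTA, 0.01% BRIJ-35. Kinase reaction 60 min at room temperature, then 60 min development. 10-point 3-fold titration from 10 μM in 1% DMSO, fitted to a sigmoidal dose-response curve.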

For assay [3], the target named is T1, PCSK9. Kind of assay: biochemical.
The target in assay [4] is T2, potassium ion channel hERG (human Ether-á-go-go-Related Gene) (Homo sapiens, UniProt Q12809).
T2 construct: expressed in transfected cells; host or cells: Chinese hamster ovary K1 (CHO)
Kind of assay: Assay 5 - hERG assay (SyncroPatch 384PE patch clamp, CHO cells). Conditions: geometric mean; CHO cells over-expressing hERG; read-out: Assay 5 (hERG Hu CHO IF EPh CR-Syncro) GMean IC50. The format is cell-based. In a few lines: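 Automated high-throughput patch clamp on CHO-K1 cells overexpressing hERG at room temperature, KF/KCl internal with escin, NMDG-containing external at pH 7.4. Six-point cumulative compound addition, 0.33% DMSO final; wells kept only with seal >30 MΩ, Z′ >0.4 and current >0.2 nA.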

Some results are limits rather than exact numbers.

Chain of GSK3β (Glycogen synthase kinase-3 beta) (P49841 whole entry): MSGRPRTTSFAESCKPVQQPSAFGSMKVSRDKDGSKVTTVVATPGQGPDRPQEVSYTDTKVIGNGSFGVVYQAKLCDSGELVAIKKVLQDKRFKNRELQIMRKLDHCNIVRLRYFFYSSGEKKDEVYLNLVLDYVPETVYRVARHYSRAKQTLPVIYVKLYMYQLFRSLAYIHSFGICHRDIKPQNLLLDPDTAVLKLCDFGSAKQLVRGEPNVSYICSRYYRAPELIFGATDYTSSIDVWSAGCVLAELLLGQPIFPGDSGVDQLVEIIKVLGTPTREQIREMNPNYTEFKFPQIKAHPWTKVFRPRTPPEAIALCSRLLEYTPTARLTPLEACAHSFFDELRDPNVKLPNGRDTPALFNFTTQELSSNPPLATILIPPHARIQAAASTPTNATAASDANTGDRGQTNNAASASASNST
T2 sequence (Q12809 whole entry): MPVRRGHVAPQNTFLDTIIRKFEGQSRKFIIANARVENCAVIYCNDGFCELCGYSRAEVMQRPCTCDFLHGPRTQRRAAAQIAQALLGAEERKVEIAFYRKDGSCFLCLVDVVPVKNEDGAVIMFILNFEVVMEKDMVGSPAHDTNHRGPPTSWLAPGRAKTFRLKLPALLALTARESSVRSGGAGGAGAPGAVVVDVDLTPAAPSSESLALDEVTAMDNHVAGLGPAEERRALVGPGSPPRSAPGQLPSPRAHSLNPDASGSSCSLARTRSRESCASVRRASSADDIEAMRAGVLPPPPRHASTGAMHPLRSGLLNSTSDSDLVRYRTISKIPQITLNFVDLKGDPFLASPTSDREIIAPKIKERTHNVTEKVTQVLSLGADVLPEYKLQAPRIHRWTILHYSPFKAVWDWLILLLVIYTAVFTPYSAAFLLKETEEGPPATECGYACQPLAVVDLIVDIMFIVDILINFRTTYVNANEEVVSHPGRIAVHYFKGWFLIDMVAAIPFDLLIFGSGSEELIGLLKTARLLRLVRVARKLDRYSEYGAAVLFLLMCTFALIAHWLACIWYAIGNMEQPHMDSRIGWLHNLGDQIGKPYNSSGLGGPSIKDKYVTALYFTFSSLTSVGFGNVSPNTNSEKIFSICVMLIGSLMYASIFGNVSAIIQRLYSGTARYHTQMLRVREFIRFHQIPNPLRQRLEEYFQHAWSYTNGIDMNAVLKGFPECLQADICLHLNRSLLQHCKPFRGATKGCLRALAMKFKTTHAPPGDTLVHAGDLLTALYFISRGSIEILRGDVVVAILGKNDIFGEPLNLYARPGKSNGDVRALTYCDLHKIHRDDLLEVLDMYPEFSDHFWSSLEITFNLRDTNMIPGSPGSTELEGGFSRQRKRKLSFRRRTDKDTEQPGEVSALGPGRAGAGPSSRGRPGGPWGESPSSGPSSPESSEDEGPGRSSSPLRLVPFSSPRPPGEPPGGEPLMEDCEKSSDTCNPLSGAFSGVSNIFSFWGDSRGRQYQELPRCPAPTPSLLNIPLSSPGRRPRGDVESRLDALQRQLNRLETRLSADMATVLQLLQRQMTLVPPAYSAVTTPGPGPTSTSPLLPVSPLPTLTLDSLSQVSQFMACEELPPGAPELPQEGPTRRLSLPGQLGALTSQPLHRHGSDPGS
T1 sequence (Q8NBP7 with tags, fused parts or gaps V474I/G670E): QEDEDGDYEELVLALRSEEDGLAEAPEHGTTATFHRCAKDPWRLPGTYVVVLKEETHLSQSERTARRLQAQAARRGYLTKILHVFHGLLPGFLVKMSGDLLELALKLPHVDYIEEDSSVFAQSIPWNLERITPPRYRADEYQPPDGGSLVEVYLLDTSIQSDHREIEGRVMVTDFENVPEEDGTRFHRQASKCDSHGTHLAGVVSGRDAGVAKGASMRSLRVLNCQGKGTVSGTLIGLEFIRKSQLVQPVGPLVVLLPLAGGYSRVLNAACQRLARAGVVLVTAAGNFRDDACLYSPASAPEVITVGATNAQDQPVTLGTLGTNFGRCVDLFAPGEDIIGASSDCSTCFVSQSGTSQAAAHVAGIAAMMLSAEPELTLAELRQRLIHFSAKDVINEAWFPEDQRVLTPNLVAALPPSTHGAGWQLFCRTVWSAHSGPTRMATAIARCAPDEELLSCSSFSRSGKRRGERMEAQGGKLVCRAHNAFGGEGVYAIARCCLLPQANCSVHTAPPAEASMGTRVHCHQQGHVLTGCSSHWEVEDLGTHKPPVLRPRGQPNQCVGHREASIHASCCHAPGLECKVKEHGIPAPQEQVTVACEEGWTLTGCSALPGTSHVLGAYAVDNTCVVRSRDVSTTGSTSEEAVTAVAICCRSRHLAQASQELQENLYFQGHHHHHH

As usually defined, the IC50 is the point on the concentration scale where inhibition reaches its midpoint. For the molecule `Cc1ncc(N[C@H]2CC[C@H](Nc3ccc(-n4cc(C(=O)O)ccc4=O)cn3)C2)nc1C` [Example 14, 6′-(((1S,3S)-3-((5,6-Dimethylpyrazin-2-yl)amino)cyclopentyl)amino)-2-oxo-2H-[1,3′-bipyridine]-5-carboxylic acid], the EC50 at PCSK9 [1] worked out at 200 nM. In addition, the IC50 in assay [2] was over 10 µM; on PCSK9 [3], 52 nM; in assay [4] it was over 40000 nM.
Taken in the same sequence, the figures for `Cc1ncc(N[C@H]2CC[C@H](Nc3ccc(-n4cccc(Cl)c4=O)cn3)C2)nc1C` [Example 19, 3-Chloro-6′-(((1S,3S)-3-((5,6-dimethylpyrazin-2-yl)amino)cyclopentyl)amino)-2H-[1,3′-bipyridin]-2-one] were 100 nM, over 10 µM, 5.3 nM and 24600 nM.
`Cc1ncc(N[C@H]2CC[C@H](Nc3ccc(-n4c(=O)ccc5cccnc54)cn3)C2)nc1C` [Example 20, 1-(6-(((1S,3S)-3-((5,6-Dimethylpyrazin-2-yl)amino)cyclopentyl)amino)pyridin-3-yl)-1,8-naphthyridin-2 (1H)-one]: the EC50 on PCSK9 [1] was 100 nM. For the same molecule, the IC50 is over 10 µM in assay [2], 17 nM against PCSK9 [3] and over 40000 nM in assay [4].
Consider `Cc1ncc(N[C@H]2CC[C@H](Nc3ccc(-n4c(=O)n(C)c5cccnc54)cn3)C2)nc1C` [Example 21, 3-(6-(((1S,3S)-3-((5,6-Dimethylpyrazin-2-yl)amino)cyclopentyl)amino)pyridin-3-yl)-1-methyl-1,3-dihydro-2H-imidazo[4,5-b]pyridin-2-one], for which, at PCSK9 [1], the EC50 is 100 nM. Moreover, the IC50 in assay [2] was over 10 µM; at PCSK9 [3] it was 11 nM; in assay [4], 33200 nM.
Turning to `Cc1ncc(N[C@H]2CC[C@H](Nc3ccc(-n4cccc(C#N)c4=O)cn3)C2)nc1C` [Example 23, 6′-(((1S,3S)-3-((5,6-Dimethylpyrazin-2-yl)amino)cyclopentyl)amino)-2-oxo-2H-[1,3′-bipyridine]-3-carbonitrile], on PCSK9 [1], the EC50 was found to be 700 nM. The concentration for half-maximal inhibition (IC50) was over 10 µM in assay [2], 8.8 nM at PCSK9 [3] and 35900 nM in assay [4].
On to `O=c1[nH]c2ccccc2n1-c1ccc(N[C@H]2CC[C@H](Nc3cnc(Cl)cn3)C2)nc1` [Example 31, 1-(6-(((1S,3S)-3-((5-Chloropyrazin-2-yl)amino)cyclopentyl)amino)pyridin-3-yl)-1,3-dihydro-2H-benzo[d]imidazol-2-one], for which the EC50 on PCSK9 [1] came out at 200 nM. Moreover, the results for the concentration for half-maximal inhibition (IC50) (in assay [2]; against PCSK9 [3]; in assay [4]) were over 10 µM, 3.7 nM and 8200 nM, respectively.
Taken in the same sequence, the figures for `O=c1ccc2cccnc2n1-c1ccc(N[C@H]2CC[C@H](Nc3cnc(Cl)cn3)C2)nc1` [Example 34, 1-(6-(((1S,3S)-3-((5-Chloropyrazin-2-yl)amino)cyclopentyl)amino)pyridin-3-yl)-1,8-naphthyridin-2 (1H)-one] were 100 nM, over 10 µM, 5.1 nM and 15400 nM.
`Cc1cnc(N[C@H]2CC[C@H](Nc3ccc(-n4c(=O)ccc5ccccc54)cn3)C2)cn1` [Example 38, 1-(6-(((1S,3S)-3-((5-Methylpyrazin-2-yl)amino)cyclopentyl)amino)pyridin-3-yl)quinolin-2(1H)-one]: the EC50 on PCSK9 [1] was determined as 100 nM. Moreover, the figures for the half-maximal inhibitory concentration (IC50) (in assay [2]; at PCSK9 [3]; in assay [4]) were over 10 µM, 2.2 nM and 25100 nM, respectively.
Taken in the same sequence, the figures for `Cc1cnc(N[C@H]2CC[C@H](Nc3ccc(-n4cc(Cl)ccc4=O)cn3)C2)cn1` [Example 43, 5-Chloro-6′-(((1S,3S)-3-((5-methylpyrazin-2-yl)amino)cyclopentyl)amino)-2H-[1,3′-bipyridin]-2-one] were 700 nM, over 10 µM, 22 nM and over 40000 nM.
`Cc1cccn(-c2ccc(N[C@H]3CC[C@H](Nc4cnc(OC(F)F)cn4)C3)nc2)c1=O` [Example 84, 6′-(((1S,3S)-3-((5-(Difluoromethoxy)pyrazin-2-yl)amino)cyclopentyl)amino)-3-methyl-2H-[1,3′-bipyridin]-2-one]: the EC50 on PCSK9 [1] was determined as 700 nM. For the same molecule, the concentration for half-maximal inhibition (IC50) in assay [2] was over 10 µM; against PCSK9 [3], 11 nM; in assay [4] it was 6900 nM.
Taken in the same sequence, the figures for `O=c1c(Cl)cccn1-c1ccc(N[C@H]2CC[C@H](Nc3cnc(OC(F)F)cn3)C2)nc1` [Example 85, 3-Chloro-6′-(((1S,3S)-3-((5-(difluoromethoxy)pyrazin-2-yl)amino)cyclopentyl)amino)-2H-[1,3′-bipyridin]-2-one] were 200 nM, over 10 µM, 4.3 nM and 5600 nM.
Taken in the same sequence, the figures for `O=c1ccc2cccnc2n1-c1ccc(N[C@H]2CC[C@H](Nc3cnc(OC(F)F)cn3)C2)nc1` [Example 87, 1-(6-(((1S,3S)-3-((5-(Difluoromethoxy)pyrazin-2-yl)amino)cyclopentyl)amino)pyridin-3-yl)-1,8-naphthyridin-2 (1H)-one] were 100 nM, over 10 µM, 9.2 nM and 18100 nM.
With `O=c1ccc2ccccc2n1-c1ccc(N[C@H]2CC[C@H](Nc3cnc(OC(F)F)cn3)C2)nc1` [Example 88, 1-(6-(((1S,3S)-3-((5-(Difluoromethoxy)pyrazin-2-yl)amino)cyclopentyl)amino)pyridin-3-yl)quinolin-2 (1H)-one], the EC50 at PCSK9 [1] was found to be 200 nM. For the same molecule, the values for the half-maximal inhibitory concentration (IC50) (in assay [2]; against PCSK9 [3]; in assay [4]) were over 10 µM, 4.5 nM and 4500 nM, respectively.
For `Cn1c(=O)n(-c2ccc(N[C@H]3CC[C@H](Nc4cnc(OC(F)F)cn4)C3)nc2)c2ncccc21` [Example 96, 3-(6-(((1S,3S)-3-((5-(Difluoromethoxy)pyrazin-2-yl)amino)cyclopentyl)amino)pyridin-3-yl)-1-methyl-1,3-dihydro-2H-imidazo[4,5-b]pyridin-2-one] the same measures were 700 nM, over 10 µM, 7.3 nM and 12200 nM.
Taken in the same sequence, the figures for `Cn1c(=O)n(-c2ccc(N[C@H]3CC[C@H](Nc4cnc(Cl)cn4)C3)nc2)c2ncccc21` [Example 98, 3-(6-(((1S,3S)-3-((5-Chloropyrazin-2-yl)amino)cyclopentyl)amino)pyridin-3-yl)-1-methyl-1,3-dihydro-2H-imidazo[4,5-b]pyridin-2-one] were 800 nM, over 10 µM, 4.2 nM and 10800 nM.
Taken in the same sequence, the figures for `N#Cc1cccn(-c2ccc(N[C@H]3CC[C@H](Nc4cnc(Cl)cn4)C3)nc2)c1=O` [Example 101, 6′-(((1S,3S)-3-((5-Chloropyrazin-2-yl)amino)cyclopentyl)amino)-2-oxo-2H-[1,3′-bipyridine]-3-carbonitrile] were 600 nM, over 10 µM, 5.5 nM and 19400 nM.
